# In patent US5922724A, “Benzimidazole compounds and their use as modulators of the GABA a receptor complex” (Neurosearch A/S, priority 1995, dated 1999):
# Target: benzodiazepine receptor sites (GABAA receptor complex)
# Assay: Displacement of ^3 H-flunitrazepam (^3 H-FNM) binding to rat cerebral cortex membranes
# Parameters: species or system male Wistar rats (cerebral cortex)
# Settings: ^3 H-FNM 1 nM, 40 min at 2° C., pH 7.1, non-specific binding with clonazepam 1 μM, read-out: IC50 (concentration of the test substance which inhibits the specific binding of ^3 H-FNM by 50%)
# From the text: At present two types of GABA receptors are known, the GABAA and the GABAB receptors. […] Activation of GABA receptors leads to alternations in membrane potential (hyperpolarization). The GABAA receptors are associated with chloride influx through its associated and integrated chloride channel, whereas GABAB receptor activation indirectly alters potassium and calcium channels as well as modifies second messenger production. The GABAA recognition sites can be activated by GABA, muscimol; and isoguvacine for example, but not by GABAB agonists such as for example baclofen. The modulatory GABAA recognition site at the benzodiazepine receptor sites can be selectively radiolabelled with ^3 H-flunitrazepam. The affinity of various potential ligands for the benzodiazepine receptor sites can thus be evaluated by estimating the ability of test compounds to displace ^3 H-flunitrazepam.
# Preparations are performed at 0-4° C. unless otherwise indicated. Cerebral cortex from male Wistar rats (150-200 g) is homogenized for 5-10 sec in 20 ml Tris-HCl (30 mM, pH 7.4) using an Ultra-Turrax homogenizer. […]
# The membrane preparation is thawed and centrifuged at 2° C. for 10 min at 27,000× g. […] Non-specific binding is determined using clonazepam (1 μM, final concentration). […] The amount of radioactivity on the filters is determined by conventional liquid scintillation counting. […]
row,SMILES,IC50 [nM]
1,c1cc(-n2ccnc2)cc(-n2cnc3cc(-c4ccoc4)ccc32)c1 [1-(3-(1-Imidazolyl)phenyl)-5-(3-furanyl)benzimidazole],0.4
2,Cc1nccn1-c1cccc(-n2cnc3cc(-c4ccoc4)ccc32)c1 [1-(3-(2-Methylimidazol-1-yl)phenyl)-5-(3-furanyl)benzimidazole],0.4
